Assay results from article PMC8298375 (Naunyn-Schmiedeberg's Archives of Pharmacology, 2021).
Where two headings read alike, the source gives them in different places.

Assays:
[1] = tested on: ICV colchicine-induced dementia rats; assay: Morris water maze test, ICV colchicine-induced dementia (chronic model); assay type: in vivo, Wistar rats; settings: Mean ± SEM; for Escape latency, 14th day / Escape latency, 21st day: colchicine 15 µg ICV; for Escape latency, Probe day: colchicine model
Protocol: In the chronic model, the rats were trained for MWM and PAT tasks for the first 4 days followed by intracerebroventricular (i.c.v.) administration of colchicine on day 6. After establishing dementia on day 10 of the colchicine administration, the drug treatment was initiated from day 11 to 24. The effects of different drug treatments on dementia were assessed on days 14 and 21. On these particular days, the swim test was performed 15 min after the administration of different treatments and escape latencies; residence time and peripheral swim time were recorded (Nampoothiri [2017]). The retention trials for PAT on day 17 and 23 were performed on days 17 and 23, 15 min after the administration of the drug.
On the 6th day, surgery was performed as described (Bokare et al. [2018]). Rat was anesthetized with sodium pentobarbital (45 mg/kg, i.p.) and positioned in stereotaxic apparatus. The head was positioned in a frame, and a midline sagittal incision was made in the scalp. Two holes were drilled through the skull at coordinates (0.8 mm posterior to bregma, 1.8 mm lateral to the sagittal suture, and 3.6 mm beneath the cortical surface) to place the injection cannula. Rats were intracerebroventricularly infused with either artificial cerebrospinal fluid (ACSF; in mM: 147 NaCl, 2.9 KCl, 1.6 MgCl2, 1.7 CaCl2, and 2.2 dextrose) or 15 µg of colchicine in 5 µL ACSF using a Hamilton microsyringe positioned in the injection cannula. To promote back diffusion, the microsyringe was left in place for 2 min following injection. The scalp was then closed with a suture. After surgery, all animals received gentamicin (5 mg/kg, i.p.) to prevent sepsis. Special care was taken during the postoperative period to provide food and water inside the cage of the rat. In sham-operated rats, surgery was identical except for injection of the solution.
A modified Morris water maze test was used (Nampoothiri [2017]). The pool was positioned in the middle of a dimly lit testing room with distant visual clues that could be used by rats for spatial orientation. The maze consisted of a circular water pool (140 × 45 cm) divided into four equally sized quadrants (NE, SE, SW, and NW) by two imaginary diagonal lines running across the center of the pool. The pool was filled with water maintained at a temperature of 23 ± 2 °C. In the NE quadrant (target quadrant) equidistant from the center and edge of the pool, a platform of 25-cm height and 10-cm diameter was invisibly placed submerged 1 cm below the water surface. Rats were gently placed in each quadrant facing the wall and trained to locate the hidden black platform, and the trial was terminated when the rat reached the platform or after 60 s. Accordingly, rats were subjected to one session of four trials per day for four consecutive days. All rats were left on the platform for 30 s and then removed and towel dried. Inter-trial interval was kept a constant 180 s throughout the study. In the probe trial, platform was removed, and rats were allowed to swim for a 60-s trial period. Data was collected in the form of escape latencies to find the platform; percent of time spent over the target quadrant.

AChE = assay type: in vivo, rat; settings: colchicine model
Protocol: Thiocholine, which was produced due to the hydrolysis of acetylthiocholine (ACTI) by AChE, was estimated by making it react with 5, 5′-dithiobis-(2-nitrobenzoic acid) (DTNB). The chemical, 5-thio-2-nitrobenzoic acid (yellow color complex), which was released due to reaction was estimated using a UV spectrophotometer in the range of 400 to 420 nm with maximal absorption at 412 nm. One hundred microliter of blank rat plasma was taken in the polypropylene vials. To this, 2.8 mL of phosphate buffer (0.01 M, pH 8) and 100 µL of DTNB reagents were added and mixed well. Then, 20 µL of ACTI (26.01 mg/mL of Milli-Q water) was added to the contents of the cuvette to initiate the enzyme reaction. The reaction kinetics was monitored at different time intervals (0, 1, 2, 3, 4 min), and absorbance was noted. 2.8 mL buffer (0.01 M, pH 8.0) and 100 µL DTNB reagent served as blank. Concentrations in the range of 0.03–30 mM were prepared using methanol as a diluent. […] Substrate concentration and reaction time were optimized such that sufficient concentration of ACTI is available to bind with the enzyme to initiate the reaction and also it should not saturate the enzyme. In this study, varying concentrations (100–1000 µM) of ACTI were prepared, and reaction kinetics were observed. In general, the maximum time should be either 2–4 min or even less, because the enzyme might undergo degradation. In the present study, up to 4 min of reaction kinetics (changing the optical density or absorbance) was measured. One unit of AChE activity is defined as the number of µmol of acetylthiocholine iodide hydrolyzed per minute. The specific activity of AChE is expressed in moles/min/mg of protein (Kaur et al. [2015]): AChEActivity=(abs.permin×1000×volumeofenzyme)/(13600×TRM)AChEActivity=abovevalue×1000(nanomolar/min/mL)
where 13,600 = molar extinction coefficient of DTNB: 1000-molar conversion factor: (TRM) total reaction mixture 3 mL: volume of enzyme (0.1 mL).

CCN(C)C(=O)Oc1cccc([C@H](C)N(C)C)c1 [ORSM, rivastigmine]
Escape latency, 14th day ([1]; listed as COL + ORSM): 5.89 ± 0.7027 s | Escape latency, 21st day ([1]; listed as COL + ORSM): 5.28 ± 0.3809 c s | Escape latency, Probe day ([1]; listed as COL + ORSM): 2.83 ± 0.3181 s | peak AChE inhibition in rat plasma (AChE): 69.56% | time of peak AChE inhibition in rat plasma (AChE): 45 min | % AChE Inhibition in rat plasma (AChE; 0 min, listed as COL + ORSM): 0.00 ± 0.0811% | % AChE Inhibition in rat plasma (AChE; 5 min, listed as COL + ORSM): 61.96 ± 0.0469% | % AChE Inhibition in rat plasma (AChE; 10 min, listed as COL + ORSM): 66.76 ± 0.0195% | % AChE Inhibition in rat plasma (AChE; 15 min): 65.00 ± 0.0292% | % AChE Inhibition in rat plasma (AChE; 20 min, listed as COL + ORSM): 66.57 ± 0.0344% | % AChE Inhibition in rat plasma (AChE; 30 min, listed as COL + ORSM): 66.82 ± 0.0101% | % AChE Inhibition in rat plasma (AChE; 60 min, listed as COL + ORSM): 67.53 ± 0.0096% | % AChE Inhibition in rat plasma (AChE; 90 min, listed as COL + ORSM): 61.88 ± 0.0149% | % AChE Inhibition in rat plasma (AChE; 120 min, listed as COL + ORSM): 60.64 ± 0.0186% | % AChE Inhibition in rat plasma (AChE; 180 min, listed as COL + ORSM): 47.43 ± 0.0393%

CCN(C)C(=O)Oc1cccc([C@H](C)N(C)C)c1 [INRSM, rivastigmine]
Escape latency, 14th day ([1]; listed as COL + INRSM): 5.28 ± 0.7425 s | Escape latency, 21st day ([1]; listed as COL + INRSM): 4.67 ± 0.3849 c s | Escape latency, Probe day ([1]; listed as COL + INRSM): 3.28 ± 0.5800 s | peak AChE inhibition in rat plasma (AChE): 76.75% | time of peak AChE inhibition in rat plasma (AChE): 15 min | % AChE Inhibition in rat plasma (AChE; 0 min, listed as COL + INRSM): 0.00 ± 0.0608% | % AChE Inhibition in rat plasma (AChE; 5 min, listed as COL + INRSM): 75.74 ± 0.0358% | % AChE Inhibition in rat plasma (AChE; 10 min, listed as COL + INRSM): 70.41 ± 0.0540% | % AChE Inhibition in rat plasma (AChE; 20 min, listed as COL + INRSM): 73.66 ± 0.0482% | % AChE Inhibition in rat plasma (AChE; 30 min, listed as COL + INRSM): 67.33 ± 0.0474% | % AChE Inhibition in rat plasma (AChE; 45 min): 64.43 ± 0.0388% | % AChE Inhibition in rat plasma (AChE; 90 min, listed as COL + INRSM): 55.83 ± 0.0401% | % AChE Inhibition in rat plasma (AChE; 120 min, listed as COL + INRSM): 47.15 ± 0.0392% | % AChE Inhibition in rat plasma (AChE; 180 min, listed as COL + INRSM): 41.37 ± 0.0410%
